Assay results from the supplement of paper PMC11061612.

Experiments:
Assay in all cases: combination Emax (second highest fraction inhibited in the dose matrix, 72 h); higher = more inhibition; extreme values may be limits of the assay
[1] = system: BICR22 (Oral Cavity Carcinoma)
Outline: (§1)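 Bliss excess equals the observed combination effect minus the expected value EA + EB − EA·EB, where EA and EB are the effects of each agent alone. Combination Emax is the second-highest inhibition within the matrix. Inhibition was scaled from CellTiter-Glo 2.0 luminescence, with 0 set by vehicle wells and 1 by blank wells, after 72 hours of two-drug dosing of cells plated in 1536-well plates.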

[2] = system: CAPAN-2 (Pancreatic Carcinoma)
Outline: as §1

[3] = system: CCK-81 (Colorectal Carcinoma)
Outline: as §1

[4] = system: COLO-320-HSR (Colorectal Carcinoma)
Outline: as §1

[5] = system: ECC10 (Gastric Carcinoma)
Outline: as §1

FU97 (Gastric Carcinoma) = system: FU97 (Gastric Carcinoma)
Outline: as §1

[6] = system: HCC1954 (Breast Carcinoma)
Outline: as §1

[7] = system: KARPAS-422 (B-Cell Non-Hodgkin's Lymphoma)
Outline: as §1

LN-405 (Glioblastoma) = system: LN-405 (Glioblastoma)
Outline: as §1

[8] = system: NCI-H1581 (Non-Small Cell Lung Carcinoma)
Outline: as §1

[9] = system: NCI-H1666 (Lung Adenocarcinoma)
Outline: as §1

[10] = system: NCI-H2066 (Squamous Cell Lung Carcinoma)
Outline: as §1

NCI-H2591 (Mesothelioma) = system: NCI-H2591 (Mesothelioma)
Outline: as §1

[11] = system: NCI-H64 (Small Cell Lung Carcinoma)
Outline: as §1

NY (Osteosarcoma) = system: NY (Osteosarcoma)
Outline: as §1

[12] = system: ONS-76 (Other Solid Carcinomas)
Outline: as §1

[13] = system: PANC-10-05 (Pancreatic Carcinoma)
Outline: as §1

[14] = system: TT (Thyroid Gland Carcinoma)
Outline: as §1

U-2-OS (Osteosarcoma) = system: U-2-OS (Osteosarcoma)
Outline: as §1

[15] = system: VCaP (Prostate Carcinoma)
Outline: as §1

CS(=O)(=O)CCNCc1ccc(-c2ccc3ncnc(Nc4ccc(OCc5cccc(F)c5)c(Cl)c4)c3c2)o1 [Lapatinib] + NC1(c2ccc(-c3nc4ccn5c(=O)[nH]nc5c4cc3-c3ccccc3)cc2)CCC1 [MK-2206] (first compound max 10 µM, 7x7, partner max 10 µM)
combination Emax [1]: 0.93 | combination Emax [2]: 0.299 | combination Emax [3]: 0.985 | combination Emax [4]: 0.925 | combination Emax [5]: 0.972 | combination Emax (FU97 (Gastric Carcinoma)): 0.795 | combination Emax [6]: 0.939 | combination Emax [7]: 0.986 | combination Emax (LN-405 (Glioblastoma)): 0.789 | combination Emax [8]: 0.462 | combination Emax [9]: 0.898 | combination Emax [10]: 0.659 | combination Emax (NCI-H2591 (Mesothelioma)): 0.418 | combination Emax [11]: 0.533 | combination Emax (NY (Osteosarcoma)): 0.246 | combination Emax [12]: 0.783 | combination Emax [13]: 0.613 | combination Emax [14]: 0.625 | combination Emax (U-2-OS (Osteosarcoma)): 0.257 | combination Emax [15]: 0.478
